Assay results: ChEMBL document CHEMBL5303573, “Mapping human microbiome drug metabolism by gut bacteria and their genes” (Nature, 2019)

Experiments:
[1] = bacteroides fragilis, 12 h, 2 µM
Description: The drug is tested on Bacteroides fragilis strain: DS-208 for biotransformation. The drug concentrations were measured before and after a 12-h incubation by liquid-chromatography-coupled mass spectrometry (LC–MS)

[2] = The drug is tested on Clostridium ramosum strain: DSM1402 for biotransformation. The drug concentrations were measured before and after a 12-h incubation by liquid-chromatography-coupled mass spectrometry (LC–MS); conditions: thomasclavelia ramosa, 2 µM
[3] = The drug is tested on Providencia stuartii strain: ATCC25827 for biotransformation. The drug concentrations were measured before and after a 12-h incubation by liquid-chromatography-coupled mass spectrometry (LC–MS); conditions: 2 µM
[4] = victivallis vadensis, 12 h, 2 µM
Description: The drug is tested on Victivallis vadensis strain: ATCC BAA-548 for biotransformation. The drug concentrations were measured before and after a 12-h incubation by liquid-chromatography-coupled mass spectrometry (LC–MS)

[5] = The drug is tested on Bacteroides xylanisolvens strain: DSM18836 for biotransformation. The drug concentrations were measured before and after a 12-h incubation by liquid-chromatography-coupled mass spectrometry (LC–MS); conditions: 2 µM
[6] = The drug is tested on Blautia hansenii strain: DSM20583 for biotransformation. The drug concentrations were measured before and after a 12-h incubation by liquid-chromatography-coupled mass spectrometry (LC–MS); conditions: 2 µM
[7] = The drug is tested on Clostridium spiroforme strain: DSM1552 for biotransformation. The drug concentrations were measured before and after a 12-h incubation by liquid-chromatography-coupled mass spectrometry (LC–MS); conditions: thomasclavelia spiroformis, 2 µM
[8] = The drug is tested on Clostridium hathewayi strain: DSM13479 for biotransformation. The drug concentrations were measured before and after a 12-h incubation by liquid-chromatography-coupled mass spectrometry (LC–MS); conditions: hungatella hathewayi, 2 µM
[9] = The drug is tested on Salmonella typhimurium strain: LT2 for biotransformation. The drug concentrations were measured before and after a 12-h incubation by liquid-chromatography-coupled mass spectrometry (LC–MS); conditions: salmonella enterica subsp. enterica, 2 µM
[10] = (§1) The drug is tested on the gut metagenome community of MV06 with ENA study accession number: PRJEB31790 and ENA sample accession number: SAMEA5537487 for biotransformation. The drug concentrations were measured over 9 timepoints collected between 0 and 24 hours of incubation by liquid-chromatography-coupled mass spectrometry (LC–MS); type: ADME; set-up: dose 2 uM, timepoint 0, 1, 2, 4, 6, 8, 12, 18, 24 hours; conditions: 2 µM
[11] = as §1, with “MV13” for “MV06”, “SAMEA5537494” for “SAMEA5537487”; type: ADME; set-up: dose 2 uM, timepoint 0, 1, 2, 4, 6, 8, 12, 18, 24 hours; conditions: 2 µM
[12] = as §1, with “MV16” for “MV06”, “SAMEA5537497” for “SAMEA5537487”; type: ADME; set-up: dose 2 uM, timepoint 0, 1, 2, 4, 6, 8, 12, 18, 24 hours; conditions: 2 µM
[13] = as §1, with “MV05” for “MV06”, “SAMEA5537486” for “SAMEA5537487”; type: ADME; set-up: dose 2 uM, timepoint 0, 1, 2, 4, 6, 8, 12, 18, 24 hours; conditions: 2 µM
[14] = as §1, with “MV01” for “MV06”, “SAMEA5537482” for “SAMEA5537487”; type: ADME; set-up: dose 2 uM, timepoint 0, 1, 2, 4, 6, 8, 12, 18, 24 hours; conditions: 2 µM
[15] = as §1, with “MV08” for “MV06”, “SAMEA5537489” for “SAMEA5537487”; type: ADME; set-up: dose 2 uM, timepoint 0, 1, 2, 4, 6, 8, 12, 18, 24 hours; conditions: 2 µM
[16] = as §1, with “MV12” for “MV06”, “SAMEA5537493” for “SAMEA5537487”; type: ADME; set-up: dose 2 uM, timepoint 0, 1, 2, 4, 6, 8, 12, 18, 24 hours; conditions: 2 µM
[17] = as §1, with “MV19” for “MV06”, “SAMEA5537500” for “SAMEA5537487”; type: ADME; set-up: dose 2 uM, timepoint 0, 1, 2, 4, 6, 8, 12, 18, 24 hours; conditions: 2 µM
[18] = as §1, with “MV10” for “MV06”, “SAMEA5537491” for “SAMEA5537487”; type: ADME; set-up: dose 2 uM, timepoint 0, 1, 2, 4, 6, 8, 12, 18, 24 hours; conditions: 2 µM
[19] = as §1, with “MV11” for “MV06”, “SAMEA5537492” for “SAMEA5537487”; type: ADME; set-up: dose 2 uM, timepoint 0, 1, 2, 4, 6, 8, 12, 18, 24 hours; conditions: 2 µM
[20] = as §1, with “MV27” for “MV06”, “SAMEA5537508” for “SAMEA5537487”; type: ADME; set-up: dose 2 uM, timepoint 0, 1, 2, 4, 6, 8, 12, 18, 24 hours; conditions: 2 µM

For `CC12CC3CC(C)(C1)CC(N)(C3)C2` [MEMANTINE], the “Bacterial Biotransformation” value [1] was “Compound NOT metabolized”, the “Bacterial Biotransformation” value [2] was “Compound NOT metabolized” and the “Bacterial Biotransformation” value [3] was “Compound NOT metabolized”.

With `CC(=O)O[C@H]1C(=O)[C@@]2(C)[C@H]([C@H](OC(=O)c3ccccc3)[C@]3(O)C[C@H](OC(=O)[C@H](O)[C@@H](NC(=O)c4ccccc4)c4ccccc4)C(C)=C1C3(C)C)[C@]1(OC(C)=O)CO[C@@H]1C[C@@H]2O` [PACLITAXEL] the “Bacterial Biotransformation” value [1] was “Compound metabolized”, the “Bacterial Biotransformation” value [2] was “Compound NOT metabolized” and the “Bacterial Biotransformation” value [4] was “Compound NOT metabolized”. For the same compound, the “Bacterial Biotransformation” value [5] was “Compound metabolized” and the “Bacterial Biotransformation” value [3] was “Compound NOT metabolized”.

In the case of `COc1c2occc2cc2ccc(=O)oc12` [METHOXSALEN], the “Bacterial Biotransformation” value [6] is reported as “Compound metabolized”, the “Bacterial Biotransformation” value [7] is reported as “Compound NOT metabolized” and the “Bacterial Biotransformation” value [8] is reported as “Compound metabolized”. The “Bacterial Biotransformation” value [2] was “Compound metabolized” and the “Bacterial Biotransformation” value [5] was “Compound metabolized”.

For `OC(c1cc(C(F)(F)F)nc2c(C(F)(F)F)cccc12)C1CCCCN1` (centres undefined) [MEFLOQUINE], the “Bacterial Biotransformation” value [5] was “Compound NOT metabolized” and the “Bacterial Biotransformation” value [3] was “Compound NOT metabolized”.

With `CC(C)(C)NCC(O)COc1cccc2c1CC(O)C(O)C2` (centres undefined) [NADOLOL] the “Bacterial Biotransformation” value [1] was “Compound NOT metabolized”, the “Bacterial Biotransformation” value [2] was “Compound NOT metabolized” and the “Bacterial Biotransformation” value [5] was “Compound NOT metabolized”. For the same compound, the “Bacterial Biotransformation” value [3] was “Compound NOT metabolized”.

For `COC(=O)[C@H]1[C@H]2C[C@@H]3c4[nH]c5cc(OC)ccc5c4CCN3C[C@H]2C[C@@H](OC(=O)c2cc(OC)c(OC)c(OC)c2)[C@@H]1OC` [RESERPINE], the “Bacterial Biotransformation” value [6] was “Compound NOT metabolized”, the “Bacterial Biotransformation” value [1] was “Compound NOT metabolized” and the “Bacterial Biotransformation” value [2] was “Compound NOT metabolized”. The “Bacterial Biotransformation” value [4] was “Compound NOT metabolized”, the “Bacterial Biotransformation” value [5] was “Compound NOT metabolized” and the “Bacterial Biotransformation” value [3] was “Compound NOT metabolized”.

In the case of `CCCCC(=O)O[C@]1(C(=O)CO)[C@@H](C)C[C@H]2[C@@H]3CCC4=CC(=O)C=C[C@]4(C)[C@@]3(F)[C@@H](O)C[C@@]21C` [BETAMETHASONE VALERATE], the “Bacterial Biotransformation” value [6] is reported as “Compound metabolized”, the “Bacterial Biotransformation” value [1] is reported as “Compound metabolized” and the “Bacterial Biotransformation” value [2] is reported as “Compound NOT metabolized”. The “Bacterial Biotransformation” value [4] was “Compound metabolized”, the “Bacterial Biotransformation” value [5] was “Compound metabolized” and the “Bacterial Biotransformation” value [3] was “Compound NOT metabolized”.

For `O=C(NC(Cc1cc(=O)[nH]c2ccccc12)C(=O)O)c1ccc(Cl)cc1` (centres undefined) [REBAMIPIDE], the “Bacterial Biotransformation” value [6] was “Compound NOT metabolized”, the “Bacterial Biotransformation” value [2] was “Compound NOT metabolized” and the “Bacterial Biotransformation” value [4] was “Compound NOT metabolized”. The “Bacterial Biotransformation” value [5] was “Compound metabolized” and the “Bacterial Biotransformation” value [3] was “Compound NOT metabolized”.

For `CC(C)(C)NC[C@H](O)COc1ccccc1C1CCCC1.CC(C)(C)NC[C@H](O)COc1ccccc1C1CCCC1.O=S(=O)(O)O` [PENBUTOLOL SULFATE], the “Bacterial Biotransformation” value [9] was “Compound NOT metabolized”, the “Bacterial Biotransformation” value [4] was “Compound NOT metabolized” and the “Bacterial Biotransformation” value [5] was “Compound NOT metabolized”. For the same compound, the “Bacterial Biotransformation” value [3] was “Compound NOT metabolized”.

For `Cc1cc(C)cc(OCC2CNC(=O)O2)c1` (centres undefined) [METAXALONE], the “Bacterial Biotransformation” value [6] was “Compound metabolized”, the “Bacterial Biotransformation” value [5] was “Compound metabolized” and the “Bacterial Biotransformation” value [3] was “Compound NOT metabolized”.

With `CCC(=O)NCC[C@@H]1CCc2ccc3c(c21)CCO3` [RAMELTEON] the “Bacterial Biotransformation” value [6] was “Compound metabolized”, the “Bacterial Biotransformation” value [1] was “Compound metabolized” and the “Bacterial Biotransformation” value [2] was “Compound NOT metabolized”. The “Bacterial Biotransformation” value [5] was “Compound metabolized”.

For `C=C[C@H]1CN2CC[C@H]1C[C@H]2[C@H](O)c1ccnc2ccc(OC)cc12.C=C[C@H]1CN2CC[C@H]1C[C@H]2[C@H](O)c1ccnc2ccc(OC)cc12.O.O.O=S(=O)(O)O` [QUININE SULFATE], the “Bacterial Biotransformation” value [7] was “Compound NOT metabolized”, the “Bacterial Biotransformation” value [8] was “Compound NOT metabolized” and the “Bacterial Biotransformation” value [2] was “Compound NOT metabolized”. For the same compound, the “Bacterial Biotransformation” value [5] was “Compound NOT metabolized” and the “Bacterial Biotransformation” value [3] was “Compound NOT metabolized”.

For `Cc1ccc(/C(=C\CN2CCCC2)c2ccccn2)cc1` [TRIPROLIDINE], the “Bacterial Biotransformation” value [1] was “Compound NOT metabolized”, the “Bacterial Biotransformation” value [2] was “Compound NOT metabolized” and the “Bacterial Biotransformation” value [5] was “Compound NOT metabolized”. For the same compound, the “Bacterial Biotransformation” value [3] was “Compound NOT metabolized”.

With `CCN(CC)CCNC(=O)c1cc(S(C)(=O)=O)ccc1OC` [TIAPRIDE] the “Bacterial Biotransformation” value [6] was “Compound NOT metabolized”, the “Bacterial Biotransformation” value [2] was “Compound NOT metabolized” and the “Bacterial Biotransformation” value [3] was “Compound NOT metabolized”.

For `CCCCC(=O)N(Cc1ccc(-c2ccccc2-c2nnn[nH]2)cc1)[C@H](C(=O)O)C(C)C`, the “Bacterial Biotransformation” value [6] was “Compound NOT metabolized”, the “Bacterial Biotransformation” value [1] was “Compound metabolized” and the “Bacterial Biotransformation” value [2] was “Compound NOT metabolized”. The “Bacterial Biotransformation” value [4] was “Compound NOT metabolized”, the “Bacterial Biotransformation” value [5] was “Compound metabolized” and the “Bacterial Biotransformation” value [3] was “Compound NOT metabolized”.

In the case of `CN(C)C(=O)C(CCN1CCC(O)(c2ccc(Cl)cc2)CC1)(c1ccccc1)c1ccccc1` [LOPERAMIDE], the “Bacterial Biotransformation” value [6] is reported as “Compound metabolized”, the “Bacterial Biotransformation” value [2] is reported as “Compound NOT metabolized” and the “Bacterial Biotransformation” value [4] is reported as “Compound NOT metabolized”. The “Bacterial Biotransformation” value [5] was “Compound metabolized” and the “Bacterial Biotransformation” value [3] was “Compound NOT metabolized”.

With `C[C@@H]1C[C@H]2[C@@H]3CCC4=CC(=O)C=C[C@]4(C)[C@@]3(F)[C@@H](O)C[C@]2(C)[C@@]1(O)C(=O)CO` [DEXAMETHASONE] the “Bacterial Biotransformation” value [1] was “Compound metabolized”, the “Bacterial Biotransformation” value [10] was “Compound NOT metabolized” and the “Bacterial Biotransformation” value [11] was “Compound NOT metabolized”. For the same compound, the “Bacterial Biotransformation” value [12] was “Compound NOT metabolized”, the “Bacterial Biotransformation” value [13] was “Compound NOT metabolized” and the “Bacterial Biotransformation” value [4] was “Compound NOT metabolized”. The “Bacterial Biotransformation” value [5] was “Compound metabolized”, the “Bacterial Biotransformation” value [14] was “Compound NOT metabolized” and the “Bacterial Biotransformation” value [15] was “Compound NOT metabolized”. For the same compound, the “Bacterial Biotransformation” value [16] was “Compound NOT metabolized”, the “Bacterial Biotransformation” value [17] was “Compound NOT metabolized” and the “Bacterial Biotransformation” value [18] was “Compound metabolized”. The “Bacterial Biotransformation” value [19] was “Compound NOT metabolized” and the “Bacterial Biotransformation” value [20] was “Compound NOT metabolized”.

With `COc1ccc(/C=C/C(=O)Nc2ccccc2C(=O)O)cc1OC` the “Bacterial Biotransformation” value [6] was “Compound NOT metabolized”, the “Bacterial Biotransformation” value [1] was “Compound NOT metabolized” and the “Bacterial Biotransformation” value [2] was “Compound NOT metabolized”. For the same compound, the “Bacterial Biotransformation” value [4] was “Compound NOT metabolized”, the “Bacterial Biotransformation” value [5] was “Compound NOT metabolized” and the “Bacterial Biotransformation” value [3] was “Compound NOT metabolized”.

In the case of `CCc1nc(N)nc(N)c1-c1ccc(Cl)cc1` [PYRIMETHAMINE], the “Bacterial Biotransformation” value [6] is reported as “Compound NOT metabolized”, the “Bacterial Biotransformation” value [1] is reported as “Compound NOT metabolized” and the “Bacterial Biotransformation” value [5] is reported as “Compound NOT metabolized”. The “Bacterial Biotransformation” value [3] was “Compound NOT metabolized”.

For `O=C(O[C@H]1C[C@H]2CC[C@@H](C1)[N+]21CCCC1)C(O)(c1ccccc1)c1ccccc1.[Cl-]` [TROSPIUM CHLORIDE], the “Bacterial Biotransformation” value [1] was “Compound NOT metabolized”, the “Bacterial Biotransformation” value [2] was “Compound NOT metabolized” and the “Bacterial Biotransformation” value [4] was “Compound NOT metabolized”. For the same compound, the “Bacterial Biotransformation” value [5] was “Compound NOT metabolized” and the “Bacterial Biotransformation” value [3] was “Compound NOT metabolized”.
